The test system of this assay is MX-1 breast xenograft, intrarenal, nude mice, tumor weight. The assay is described as follows: NCI In Vivo Anticancer Drug Screen. Data for tumor model Human Mammary Carcinoma MX-1 Xenograft (intrarenal inoculation) in NU/NU BALB/C (nude) mice. Conditions: endpoint: mean tumor weight change, higher = larger tumour. The method in brief:
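T/C readout: treated-group measurement over vehicle-control measurement, using tumor size or survival in tumor-bearing mice.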

Where [1] appears, read: dose: 12.5 mg/kg/injection, schedule: Q04DX003 (ip), vehicle: Klucel (hydroxypropylcellulose) (HPC).
Where [2] appears, read: dose: 25.0 mg/kg/injection, schedule: Q04DX003 (ip), vehicle: Klucel (hydroxypropylcellulose) (HPC).
Where [3] appears, read: dose: 50.0 mg/kg/injection, schedule: Q04DX003 (ip), vehicle: Klucel (hydroxypropylcellulose) (HPC).
Setting [4] is: dose: 100.0 mg/kg/injection, schedule: Q04DX003 (ip), vehicle: Klucel (hydroxypropylcellulose) (HPC).
Where [5] appears, read: dose: 50.0 mg/kg/injection, schedule: Q04DX003 (ip), vehicle: saline with Tween-80.
Where [6] appears, read: dose: 100.0 mg/kg/injection, schedule: Q04DX003 (ip), vehicle: saline with Tween-80.
[7] abbreviates: dose: 200.0 mg/kg/injection, schedule: Q04DX003 (ip), vehicle: saline with Tween-80.
Where [8] appears, read: dose: 400.0 mg/kg/injection, schedule: Q04DX003 (ip), vehicle: saline with Tween-80.
Where [9] appears, read: dose: 12.5 mg/kg/injection, schedule: Q04DX003 (ip), vehicle: saline with Tween-80.
[10] abbreviates: dose: 25.0 mg/kg/injection, schedule: Q04DX003 (ip), vehicle: saline with Tween-80.
[11] abbreviates: dose: 150.0 mg/kg/injection, schedule: Q04DX003 (sc), vehicle: saline.
Setting [12] is: dose: 75.0 mg/kg/injection, schedule: Q04DX003 (sc), vehicle: saline with Tween-80.

“And” between values parts separate entries of the source, which are not always exact repeats. Equal values may be shown once. Results filed as inconclusive are left out.

In the case of `CC1=CCCC2C1(C)CCC(C)C2(C)Cc1cc(O)ccc1O` (centres undefined), the T/C was 84 % of control under setting [1], 76 % of control under setting [2], 86 % of control under setting [3] and 66 % of control under setting [4].

Consider `CCc1nc(N)nc(N)c1-c1ccc(Cl)c(N=[N+]=[N-])c1`, for which the T/C (dose: 67.0 mg/kg/injection, schedule: Q04DX003 (ip), vehicle: water) is 85 % of control.

`NC(=S)c1ncn(C2OC(COC=O)C(OC=O)C2OC=O)c1NC=O` (centres undefined): the T/C under setting [5] is 105 % of control; the T/C under setting [4] is 47 % of control; the T/C under setting [6] was 103 % of control; the T/C (dose: 200.0 mg/kg/injection, schedule: Q04DX003 (ip), vehicle: Klucel (hydroxypropylcellulose) (HPC)) was 31 % of control; the T/C under setting [7] was 65 % of control; the T/C (dose: 400.0 mg/kg/injection, schedule: Q04DX003 (ip), vehicle: Klucel (hydroxypropylcellulose) (HPC)) was 48 % of control. Moreover, the T/C under setting [8] was 9 % of control.

As to `CO[C@@]12[C@@H]3N[C@@H]3CN1C1=C(C(=O)C(NCCc3ccccn3)=C(C)C1=O)[C@@H]2COC(N)=O`, the T/C by setting is: (dose: 6.25 mg/kg/injection, schedule: Q04DX003 (ip), vehicle: saline with Tween-80) -51 % of control; under setting [9], -84 % of control; under setting [10], -92 % of control; under setting [5], -42 % of control.

In the case of `CO[C@@]12[C@@H]3N[C@@H]3CN1C1=C(C(=O)C(NCC3CCCO3)=C(C)C1=O)[C@@H]2COC(N)=O` (some centres undefined), the T/C is, setting by setting: (dose: 6.25 mg/kg/injection, schedule: Q04DX003 (ip), vehicle: Klucel (hydroxypropylcellulose) (HPC)) 43 % of control; under setting [1], 56 % of control and 57 % of control; (dose: 12.5 mg/kg/injection, schedule: Q04DX003 (ip), vehicle: distilled water + Tween-80) 1 % of control and 3 % of control; under setting [2], 35 % of control and 59 % of control; under setting [3], 28 % of control and 32 % of control; (dose: 50.0 mg/kg/injection, schedule: Q04DX003 (ip), vehicle: distilled water + Tween-80) -4 % of control. For the same compound, the T/C under setting [4] was 14 % of control.

On to `O=C1C2C3C=CC(C2C(=O)N1CO)C1C2C(=O)N(CO)C(=O)C2C31` (centres undefined), for which the T/C by setting is: (dose: 37.5 mg/kg/injection, schedule: Q04DX003 (ip), vehicle: water) 110 % of control; (dose: 75.0 mg/kg/injection, schedule: Q04DX003 (ip), vehicle: water) 71 % of control.

Turning to `N#Cc1ccc(NN=O)nc1`, the T/C runs as follows: (dose: 12.5 mg/kg/injection, schedule: Q04DX003 (ip), vehicle: other) 95 % of control; (dose: 12.5 mg/kg/injection, schedule: Q04DX003 (ip), vehicle: water) 38 % of control and 41 % of control; (dose: 25.0 mg/kg/injection, schedule: Q04DX003 (ip), vehicle: other) 20 % of control; (dose: 25.0 mg/kg/injection, schedule: Q04DX003 (ip), vehicle: water) 7 % of control and 9 % of control; (dose: 50.0 mg/kg/injection, schedule: Q04DX003 (ip), vehicle: other) 4 % of control; (dose: 50.0 mg/kg/injection, schedule: Q04DX003 (ip), vehicle: water) 1 % of control and 12 % of control. Besides, the T/C is -92 % of control (dose: 100.0 mg/kg/injection, schedule: Q04DX003 (ip), vehicle: other) and -86 % of control (dose: 100.0 mg/kg/injection, schedule: Q04DX003 (ip), vehicle: water).

In the case of `CC1CN1P1(N2CC2C)=NP(N2CC2C)(N2CC2C)=NP(N2CC2C)(N2CC2C)=N1` (centres undefined), the T/C reads like this: (dose: 75.0 mg/kg/injection, schedule: Q04DX003 (sc), vehicle: saline) 51 % of control; under setting [11], 3 % of control.

`c1ccc(P(CCNCCP(c2ccccc2)c2ccccc2)c2ccccc2)cc1`: the T/C by setting is: under setting [6], 111 % of control; under setting [7], 106 % of control; (dose: 800.0 mg/kg/injection, schedule: Q04DX003 (ip), vehicle: saline with Tween-80) 81 % of control.

Turning to `O=c1[nH]cnc2c1nnn2C1OC(CO)C(O)C1O` (centres undefined), the T/C reads like this: (dose: 150.0 mg/kg/injection, schedule: Q04DX003 (ip), vehicle: saline) 18 % of control and 32 % of control; (dose: 150.0 mg/kg/injection, schedule: Q04DX003 (ip), vehicle: suspension in saline) 11 % of control and 24 % of control; (dose: 300.0 mg/kg/injection, schedule: Q04DX003 (ip), vehicle: saline) 17 % of control and 19 % of control; (dose: 300.0 mg/kg/injection, schedule: Q04DX003 (ip), vehicle: suspension in saline) 10 % of control and 20 % of control; (dose: 600.0 mg/kg/injection, schedule: Q04DX003 (ip), vehicle: saline) 8 % of control and 13 % of control; (dose: 600.0 mg/kg/injection, schedule: Q04DX003 (ip), vehicle: suspension in saline) 9 % of control and 13 % of control. Further, the T/C by setting is: (dose: 1200.0 mg/kg/injection, schedule: Q04DX003 (ip), vehicle: saline) 9 % of control and 11 % of control; (dose: 1200.0 mg/kg/injection, schedule: Q04DX003 (ip), vehicle: suspension in saline) 8 % of control and 12 % of control.

For `O=C(/C=C/c1cccnc1)/C=C/c1cccnc1`, the T/C under setting [3] was 67 % of control.

On to `O=C(Nc1ccccc1)c1c(O)[nH]c(=O)[nH]c1=O`, for which the T/C under setting [6] is 102 % of control, the T/C under setting [7] was 71 % of control and the T/C under setting [8] was 57 % of control.

As for `CCN(CC)Cc1cc2[nH]c3c4ccc(Cl)cc4ncc3c2cc1OC`, the T/C was 92 % of control under setting [12] and 73 % of control (dose: 300.0 mg/kg/injection, schedule: Q04DX003 (sc), vehicle: saline with Tween-80).

Take `CC(=O)OCC1OC(n2cc(CBr)nn2)C(OC(C)=O)C(OC(C)=O)C1OC(C)=O` (centres undefined): the T/C was 92 % of control (dose: 25.0 mg/kg/injection, schedule: Q01DX010 (sc), vehicle: saline with Tween-80); 94 % of control (dose: 50.0 mg/kg/injection, schedule: Q01DX010 (sc), vehicle: saline with Tween-80); 95 % of control (dose: 100.0 mg/kg/injection, schedule: Q01DX010 (sc), vehicle: saline with Tween-80); 87 % of control (dose: 200.0 mg/kg/injection, schedule: Q01DX010 (sc), vehicle: saline with Tween-80).

As to `C/C(=N\NC(=S)N1CC2CCC(CC2)C1)c1cccc(C)n1`, the T/C was 77 % of control under setting [9], 62 % of control under setting [10] and 78 % of control under setting [5].

Consider `[Na+]`, for which the T/C (dose: 150.0 mg/kg/injection, schedule: Q04DX003 (ip), vehicle: water) is 66 % of control; the T/C (dose: 600.0 mg/kg/injection, schedule: Q04DX003 (ip), vehicle: water) was 84 % of control; the T/C (dose: 1200.0 mg/kg/injection, schedule: Q04DX003 (ip), vehicle: water) is 97 % of control.

Consider `CCc1nc(N)nc(N)c1-c1ccc(Cl)c([N+](=O)[O-])c1`, for which the T/C is 99 % of control (dose: 18.75 mg/kg/injection, schedule: Q04DX003 (sc), vehicle: saline with Tween-80); 71 % of control (dose: 37.5 mg/kg/injection, schedule: Q04DX003 (sc), vehicle: saline with Tween-80); 82 % of control under setting [12].

Consider `NNC(=O)c1ccncc1`, for which, under setting [11], the T/C is 123 % of control.

Consider `COC(=O)C1(F)C(=O)NC(=O)NC1OC` (centres undefined), for which the T/C runs as follows: (dose: 150.0 mg/kg/injection, schedule: Q04DX003 (ip), vehicle: Klucel (hydroxypropylcellulose) (HPC)) 85 % of control; (dose: 300.0 mg/kg/injection, schedule: Q04DX003 (ip), vehicle: Klucel (hydroxypropylcellulose) (HPC)) 93 % of control; (dose: 600.0 mg/kg/injection, schedule: Q04DX003 (ip), vehicle: Klucel (hydroxypropylcellulose) (HPC)) 43 % of control.

In the case of `COc1cc2cc(c1Cl)N(C)C(=O)C[C@H](OC(=O)[C@H](C)N(C)C(C)=O)[C@]1(C)O[C@H]1[C@H](C)[C@@H]1C[C@@](O)(NC(=O)O1)[C@H](OC)C=C/C=C(\C)C2`, the T/C was 152 % of control (dose: 12.5 micrograms/kg/injection, schedule: Q01DX010 (sc), vehicle: Klucel (hydroxypropylcellulose) (HPC)); 73 % of control (dose: 25.0 micrograms/kg/injection, schedule: Q01DX010 (sc), vehicle: Klucel (hydroxypropylcellulose) (HPC)); 75 % of control (dose: 50.0 micrograms/kg/injection, schedule: Q01DX010 (sc), vehicle: Klucel (hydroxypropylcellulose) (HPC)); 14 % of control (dose: 100.0 micrograms/kg/injection, schedule: Q01DX010 (sc), vehicle: Klucel (hydroxypropylcellulose) (HPC)); -78 % of control (dose: 200.0 micrograms/kg/injection, schedule: Q01DX010 (sc), vehicle: Klucel (hydroxypropylcellulose) (HPC)).
